Target: ROCK2 (Homo sapiens, UniProt O75116)
Assay: ROCK2 kinase inhibition assay (LABCHIP 3000 Reader, FITC peptide substrate);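 note: rho kinase reaction read by separating phosphorylated from unphosphorylated peptide on chip, with inhibition of kinase activity computed per concentration across a dose-response series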

Chain of ROCK2 (O75116 whole entry, species assumed): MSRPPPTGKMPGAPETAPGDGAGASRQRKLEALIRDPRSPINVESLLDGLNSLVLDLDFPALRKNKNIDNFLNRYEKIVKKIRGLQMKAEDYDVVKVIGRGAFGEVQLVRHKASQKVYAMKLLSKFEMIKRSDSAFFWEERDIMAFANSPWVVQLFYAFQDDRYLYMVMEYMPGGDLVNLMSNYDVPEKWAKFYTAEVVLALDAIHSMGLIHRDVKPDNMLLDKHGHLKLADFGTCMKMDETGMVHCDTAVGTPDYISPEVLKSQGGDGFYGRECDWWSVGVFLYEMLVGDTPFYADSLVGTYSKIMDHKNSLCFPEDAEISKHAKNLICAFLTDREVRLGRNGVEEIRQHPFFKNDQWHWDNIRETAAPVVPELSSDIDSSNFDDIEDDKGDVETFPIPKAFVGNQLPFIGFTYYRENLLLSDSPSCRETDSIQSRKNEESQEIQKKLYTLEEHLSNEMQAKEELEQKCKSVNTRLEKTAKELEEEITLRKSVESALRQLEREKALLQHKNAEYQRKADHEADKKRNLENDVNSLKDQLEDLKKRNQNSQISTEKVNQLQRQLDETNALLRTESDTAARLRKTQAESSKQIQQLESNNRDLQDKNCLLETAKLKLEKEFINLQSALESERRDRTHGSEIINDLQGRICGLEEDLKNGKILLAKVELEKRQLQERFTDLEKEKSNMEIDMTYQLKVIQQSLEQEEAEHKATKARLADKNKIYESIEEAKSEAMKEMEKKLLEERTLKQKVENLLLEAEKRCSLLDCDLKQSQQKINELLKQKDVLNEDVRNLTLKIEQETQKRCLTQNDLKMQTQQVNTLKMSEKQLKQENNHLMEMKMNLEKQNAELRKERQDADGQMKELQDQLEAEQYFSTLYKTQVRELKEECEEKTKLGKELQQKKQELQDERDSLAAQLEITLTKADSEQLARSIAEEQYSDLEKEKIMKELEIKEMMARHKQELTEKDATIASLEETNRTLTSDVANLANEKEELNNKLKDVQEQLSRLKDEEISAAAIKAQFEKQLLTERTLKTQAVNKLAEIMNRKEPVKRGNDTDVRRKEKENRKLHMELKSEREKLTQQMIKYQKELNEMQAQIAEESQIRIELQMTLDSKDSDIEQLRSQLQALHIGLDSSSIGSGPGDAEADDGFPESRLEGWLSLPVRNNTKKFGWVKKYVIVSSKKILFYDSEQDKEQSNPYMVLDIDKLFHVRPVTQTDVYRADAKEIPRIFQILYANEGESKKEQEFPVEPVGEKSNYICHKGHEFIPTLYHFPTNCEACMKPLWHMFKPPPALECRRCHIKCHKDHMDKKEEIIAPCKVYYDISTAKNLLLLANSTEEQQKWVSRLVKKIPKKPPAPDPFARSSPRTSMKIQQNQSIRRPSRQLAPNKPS

Compound	IC50 [nM]
CC(C)(O)COc1ccc2c(C(=O)NC3CC4(C3)CC(Oc3c(F)cc(F)cc3C(N)=O)C4)cnn2c1 (centres unmarked) [Example 268, N-(6-(2-carbamoyl-4,6-difluorophenoxy)spiro[3.3]heptan-2-yl)-6-(2-hydroxy-2-methylpropoxy)pyrazolo[1,5-a]pyridine-3-carboxamide]	250 to 2500
CC(C)(O)COc1ccc2c(C(=O)NC3CC4(C3)CC(Oc3c(F)cc(F)cc3C(N)=O)C4)cnn2c1C1CC1 (centres unmarked) [Example 269, N-(6-(2-carbamoyl-4,6-difluorophenoxy)spiro[3.3]heptan-2-yl)-7-cyclopropyl-6-(2-hydroxy-2-methylpropoxy)pyrazolo[1,5-a]pyridine-3-carboxamide]	50 to 250
CC(C)(O)COc1ccc2c(C(=O)NC3CC4(C3)CC(Oc3ccc(F)cc3C(N)=O)C4)cnn2c1 (centres unmarked) [Example 270, N-(6-(2-carbamoyl-4-fluorophenoxy)spiro[3.3]heptan-2-yl)-6-(2-hydroxy-2-methylpropoxy)pyrazolo[1,5-a]pyridine-3-carboxamide]	50 to 250
CC(C)(O)COc1ccc2c(C(=O)NC3CC4(C3)CC(Oc3ccc(F)cc3C(N)=O)C4)cnn2c1C1CC1 (centres unmarked) [Example 271, N-(6-(2-carbamoyl-4-fluorophenoxy)spiro[3.3]heptan-2-yl)-7-cyclopropyl-6-(2-hydroxy-2-methylpropoxy)pyrazolo[1,5-a]pyridine-3-carboxamide]	5 to 50
CC(C)(O)COc1ccc2c(C(=O)NC3CC4(C3)CC(Oc3cc(Br)ccc3C(N)=O)C4)cnn2c1 (centres unmarked) [Example 272, N-(6-(5-bromo-2-carbamoylphenoxy)spiro[3.3]heptan-2-yl)-6-(2-hydroxy-2-methylpropoxy)pyrazolo[1,5-a]pyridine-3-carboxamide]	< 5
CC(C)(O)COc1ccc2c(C(=O)NC3CC4(C3)CC(Oc3cc(C5CC5)ccc3C(N)=O)C4)cnn2c1 (centres unmarked) [Example 273, N-(6-(2-carbamoyl-5-cyclopropylphenoxy)spiro[3.3]heptan-2-yl)-6-(2-hydroxy-2-methylpropoxy)pyrazolo[1,5-a]pyridine-3-carboxamide]	5 to 50
CC(C)(O)COc1ccc2c(C(=O)NC3CC4(C3)CC(Oc3cc(C5CC5)ccc3C(N)=O)C4)cnn2c1C1CC1 (centres unmarked) [Example 274, N-(6-(2-carbamoyl-5-cyclopropylphenoxy)spiro[3.3]heptan-2-yl)-7-cyclopropyl-6-(2-hydroxy-2-methylpropoxy)pyrazolo[1,5-a]pyridine-3-carboxamide]	< 5
Cn1cc(-c2ccc(C(N)=O)c(OC3CC4(CC(NC(=O)c5cnn6cc(OCC(C)(C)O)ccc56)C4)C3)c2)cn1 (centres unmarked) [Example 275, N-(6-(2-carbamoyl-5-(1-methyl-1H-pyrazol-4-yl)phenoxy)spiro[3.3]heptan-2-yl)-6-(2-hydroxy-2-methylpropoxy)pyrazolo[1,5-a]pyridine-3-carboxamide]	5 to 50
CC(C)(O)COc1ccc2c(C(=O)NC3CC4(C3)CC(Oc3cc(-c5cnn(C6CC6)c5)ccc3C(N)=O)C4)cnn2c1 (centres unmarked) [Example 277, N-(6-(2-carbamoyl-5-(1-cyclopropyl-1H-pyrazol-4-yl)phenoxy)spiro[3.3]heptan-2-yl)-6-(2-hydroxy-2-methylpropoxy)pyrazolo[1,5-a]pyridine-3-carboxamide]	5 to 50
CC(C)(O)COc1ccc2c(C(=O)NC3CC4(C3)CC(Oc3cc(-c5cnn(C6CCOCC6)c5)ccc3C(N)=O)C4)cnn2c1 (centres unmarked) [Example 278, N-(6-(2-carbamoyl-5-(1-(tetrahydro-2H-pyran-4-yl)-1H-pyrazol-4-yl)phenoxy)spiro[3.3]heptan-2-yl)-6-(2-hydroxy-2-methylpropoxy)pyrazolo[1,5-a]pyridine-3-carboxamide]	5 to 50
CC(C)(O)COc1ccc2c(C(=O)NC3CC4(C3)CC(Oc3cc(-c5cnn(CC(C)(C)O)c5)ccc3C(N)=O)C4)cnn2c1 (centres unmarked) [Example 279, N-(6-(2-carbamoyl-5-(1-(2-hydroxy-2-methylpropyl)-1H-pyrazol-4-yl)phenoxy)spiro[3.3]heptan-2-yl)-6-(2-hydroxy-2-methylpropoxy)pyrazolo[1,5-a]pyridine-3-carboxamide]	5 to 50
CC(C)(O)COc1ccc2c(C(=O)NC3CC4(C3)CC(Oc3cc(-c5ccc(C(N)=O)c(F)c5)ccc3C(N)=O)C4)cnn2c1 (centres unmarked) [Example 280, 3-fluoro-3′-((6-(6-(2-hydroxy-2-methylpropoxy)pyrazolo[1,5-a]pyridine-3-carboxamido)spiro[3.3]heptan-2-yl)oxy)-[1,1′-biphenyl]-4,4′-dicarboxamide]	5 to 50
CC(C)(O)COc1ccc2c(C(=O)NC3CC4(C3)CC(Oc3cc(-c5ccc(CN6CCOCC6)s5)ccc3C(N)=O)C4)cnn2c1 (centres unmarked) [Example 281, N-(6-(2-carbamoyl-5-(5-(morpholinomethyl)thiophen-2-yl)phenoxy)spiro[3.3]heptan-2-yl)-6-(2-hydroxy-2-methylpropoxy)pyrazolo[1,5-a]pyridine-3-carboxamide]	5 to 50
CCOC(=O)Cc1cccc(-c2ccc(C(N)=O)c(OC3CC4(CC(NC(=O)c5cnn6cc(OCC(C)(C)O)ccc56)C4)C3)c2)c1 (centres unmarked) [Example 282, ethyl 2-(4′-carbamoyl-3′-((6-(6-(2-hydroxy-2-methylpropoxy)pyrazolo[1,5-a]pyridine-3-carboxamido)spiro[3.3]heptan-2-yl)oxy)-[1,1′-biphenyl]-3-yl)acetate]	5 to 50
CC(C)(O)COc1ccc2c(C(=O)NC3CC4(C3)CC(Oc3cc(-c5cc(F)c(F)c(F)c5)ccc3C(N)=O)C4)cnn2c1 (centres unmarked) [Example 283, N-(6-((4-carbamoyl-3′,4′,5′-trifluoro-[1,1′-biphenyl]-3-yl)oxy)spiro[3.3]heptan-2-yl)-6-(2-hydroxy-2-methylpropoxy)pyrazolo[1,5-a]pyridine-3-carboxamide]	50 to 250
CC(C)(O)COc1ccc2c(C(=O)NC3CC4(C3)CC(Oc3cc(-c5cccc(S(C)(=O)=O)c5)ccc3C(N)=O)C4)cnn2c1 (centres unmarked) [Example 284, N-(6-((4-carbamoyl-3′-(methylsulfonyl)-[1,1′-biphenyl]-3-yl)oxy)spiro[3.3]heptan-2-yl)-6-(2-hydroxy-2-methylpropoxy)pyrazolo[1,5-a]pyridine-3-carboxamide]	< 5
CN(C)CCNC(=O)c1cccc(-c2ccc(C(N)=O)c(OC3CC4(CC(NC(=O)c5cnn6cc(OCC(C)(C)O)ccc56)C4)C3)c2)c1 (centres unmarked) [Example 285, N3-(2-(dimethylamino)ethyl)-3′-((6-(6-(2-hydroxy-2-methylpropoxy)pyrazolo[1,5-a]pyridine-3-carboxamido)spiro[3.3]heptan-2-yl)oxy)-[1,1′-biphenyl]-3,4′-dicarboxamide]	5 to 50
CC(C)(O)COc1ccc2c(C(=O)NC3CC4(C3)CC(Oc3cc(-c5ccc(S(C)(=O)=O)cc5)ccc3C(N)=O)C4)cnn2c1 (centres unmarked) [Example 286, N-(6-((4-carbamoyl-4′-(methylsulfonyl)-[1,1′-biphenyl]-3-yl)oxy)spiro[3.3]heptan-2-yl)-6-(2-hydroxy-2-methylpropoxy)pyrazolo[1,5-a]pyridine-3-carboxamide]	5 to 50
CNC(=O)c1cccc(-c2ccc(C(N)=O)c(OC3CC4(CC(NC(=O)c5cnn6cc(OCC(C)(C)O)ccc56)C4)C3)c2)c1 (centres unmarked) [Example 287, 3′-((6-(6-(2-hydroxy-2-methylpropoxy)pyrazolo[1,5-a]pyridine-3-carboxamido)spiro[3.3]heptan-2-yl)oxy)-N3-methyl-[1,1′-biphenyl]-3,4′-dicarboxamide]	5 to 50
CC(C)(O)COc1ccc2c(C(=O)NC3CC4(C3)CC(Oc3cc(-c5cccc(OCCCN)c5)ccc3C(N)=O)C4)cnn2c1 (centres unmarked) [Example 288, N-(6-((3′-(3-aminopropoxy)-4-carbamoyl-[1,1′-biphenyl]-3-yl)oxy)spiro[3.3]heptan-2-yl)-6-(2-hydroxy-2-methylpropoxy)pyrazolo[1,5-a]pyridine-3-carboxamide]	5 to 50
CC(C)(O)COc1ccc2c(C(=O)NC3CC4(C3)CC(Oc3cc(-c5cccc(C(N)=O)c5)ccc3C(N)=O)C4)cnn2c1 (centres unmarked) [Example 289, 3′-((6-(6-(2-hydroxy-2-methylpropoxy)pyrazolo[1,5-a]pyridine-3-carboxamido)spiro[3.3]heptan-2-yl)oxy)-[1,1′-biphenyl]-3,4′-dicarboxamide]	< 5
CC(C)(O)COc1ccc2c(C(=O)NC3CC4(C3)CC(Oc3cc(/C=C/CCO)ccc3C(N)=O)C4)cnn2c1 (centres unmarked) [Example 290, (E)-N-(6-(2-carbamoyl-5-(4-hydroxybut-1-en-1-yl)phenoxy)spiro[3.3]heptan-2-yl)-6-(2-hydroxy-2-methylpropoxy)pyrazolo[1,5-a]pyridine-3-carboxamide]	5 to 50
CC(C)(O)COc1ccc2c(C(=O)NC3CC4(C3)CC(Oc3cc(-c5cccc(/C=C/C(=O)O)c5)ccc3C(N)=O)C4)cnn2c1 (centres unmarked) [Example 291, (E)-3-(4′-carbamoyl-3′-((6-(6-(2-hydroxy-2-methylpropoxy)pyrazolo[1,5-a]pyridine-3-carboxamido)spiro[3.3]heptan-2-yl)oxy)-[1,1′-biphenyl]-3-yl)acrylic acid]	5 to 50
CC(C)(O)COc1ccc2c(C(=O)NC3CC4(C3)CC(Oc3cc(-c5ccc(F)c(C(N)=O)c5)ccc3C(N)=O)C4)cnn2c1 (centres unmarked) [Example 292, 4-fluoro-3′-((6-(6-(2-hydroxy-2-methylpropoxy)pyrazolo[1,5-a]pyridine-3-carboxamido)spiro[3.3]heptan-2-yl)oxy)-[1,1′-biphenyl]-3,4′-dicarboxamide]	< 5
COCCNC(=O)c1cccc(-c2ccc(C(N)=O)c(OC3CC4(CC(NC(=O)c5cnn6cc(OCC(C)(C)O)ccc56)C4)C3)c2)c1 (centres unmarked) [Example 293, 3′-((6-(6-(2-hydroxy-2-methylpropoxy)pyrazolo[1,5-a]pyridine-3-carboxamido)spiro[3.3]heptan-2-yl)oxy)-N3-(2-methoxyethyl)-[1,1′-biphenyl]-3,4′-dicarboxamide]	5 to 50
CC(C)(O)COc1ccc2c(C(=O)NC3CC4(C3)CC(Oc3cc(-c5cccc(C(=O)N6CCOCC6)c5)ccc3C(N)=O)C4)cnn2c1 (centres unmarked) [Example 294, N-(6-((4-carbamoyl-3′-(morpholine-4-carbonyl)-[1,1′-biphenyl]-3-yl)oxy)spiro[3.3]heptan-2-yl)-6-(2-hydroxy-2-methylpropoxy)pyrazolo[1,5-a]pyridine-3-carboxamide]	5 to 50
